Like-named read-outs stand apart in the source and are kept apart here.
How the values were obtained:
Helicobacter pylori [1] = test: microbe, parasite or virus in culture
[2] = tested on: clarithromycin and/or metronidazole - intermediate or resistant strains of Helicobacter pylori; test: Bacteriostatic activity (MIC) against intermediate or resistant strains; type: cell-based; settings: Helicobacter pylori, read-out: MIC
[3] = tested on: amoxicillin/clarithromycin/metronidazole - susceptible strains of Helicobacter pylori; test: Bacteriostatic activity (MIC) against susceptible strains; type: cell-based; settings: for MIC: Helicobacter pylori, read-out: MIC
Helicobacter pylori [4] = tested on: Helicobacter pylori

C[S+]([O-])CCCCN=C=S (stereo not drawn) [Sulforaphane, 4-methylsulfinylbutyl isothiocyanate]
−1.34 log10CFU: Actual reductions (log10CFU) (Helicobacter pylori [4]; HP 2, 24 h, 10x MIC)
2 mg/L: MIC (Helicobacter pylori [1]; strain HP 1) | MIC (Helicobacter pylori [1]; strain HP 2) | MIC ([2]; H. pylori strain no 38) | MIC ([2]; H. pylori strain no 46) | MIC ([3]; H. pylori strain no 1) | MIC ([3]; H. pylori strain no 3) | MIC ([3]; H. pylori strain no 9) | MIC ([3]; H. pylori strain no 11) | MIC ([3]; H. pylori strain no 19) | MIC ([3]; H. pylori strain no 29) | MIC ([3]; H. pylori strain no 32)
4 mg/L: MIC (Helicobacter pylori [1]; strain HP 3) | MIC ([2]; H. pylori strain no 33) | MIC ([2]; H. pylori strain no 35) | MIC ([2]; H. pylori strain no 36) | MIC ([2]; H. pylori strain no 40) | MIC ([2]; H. pylori strain no 42) | MIC ([2]; H. pylori strain no 47) | MIC ([3]; H. pylori strain no 2) | MIC ([3]; H. pylori strain no 4) | MIC ([3]; H. pylori strain no 5) | MIC ([3]; H. pylori strain no 12) | MIC ([3]; H. pylori strain no 13) | MIC ([3]; H. pylori strain no 31)
0.125 mg/L: MIC ([2]; H. pylori strain no 41)
8 mg/L: MIC ([2]; H. pylori strain no 43)
−0.12 log10CFU: Actual reductions (log10CFU) (Helicobacter pylori [4]; HP 2, 2 h, 20x MIC)
−1.30 log10CFU: Actual reductions (log10CFU) (Helicobacter pylori [4]; HP 2, 4 h, 20x MIC) | Actual reductions (log10CFU) (Helicobacter pylori [4]; HP 2, 8 h, 10x MIC)
−1.17 log10CFU: Actual reductions (log10CFU) (Helicobacter pylori [4]; HP 2, 4 h, 10x MIC)
8 h: Time (h) at which 99.9% intracellular killing was observed (Helicobacter pylori [4]; HP 1, 1 × MIC, tested in triplicate) | Time (h) at which 99.9% intracellular killing was observed (Helicobacter pylori [4]; HP 1, 5 × MIC, tested in triplicate) | Time (h) at which 99.9% intracellular killing was observed (Helicobacter pylori [4]; HP 1, 10 × MIC, tested in triplicate) | Time (h) at which 99.9% intracellular killing was observed (Helicobacter pylori [4]; HP 1, 20 × MIC, tested in triplicate) | Time (h) at which 99.9% intracellular killing was observed (Helicobacter pylori [4]; HP 4, 1 × MIC, tested in duplicate, not definitive) | Time (h) at which 99.9% intracellular killing was observed (Helicobacter pylori [4]; HP 4, 5 × MIC, tested in duplicate, not definitive) | Time (h) at which 99.9% intracellular killing was observed (Helicobacter pylori [4]; HP 4, 10 × MIC, tested in duplicate, not definitive)
4 h: Time (h) at which 99.9% intracellular killing was observed (Helicobacter pylori [4]; HP 3, 1 × MIC, tested in triplicate) | Time (h) at which 99.9% intracellular killing was observed (Helicobacter pylori [4]; HP 3, 5 × MIC, tested in triplicate) | Time (h) at which 99.9% intracellular killing was observed (Helicobacter pylori [4]; HP 3, 10 × MIC, tested in triplicate) | Time (h) at which 99.9% intracellular killing was observed (Helicobacter pylori [4]; HP 4, 20 × MIC, tested in duplicate, not definitive)
−1.20 log10CFU: Actual reductions (log10CFU) (Helicobacter pylori [4]; HP 2, 24 h, 5x MIC) | Actual reductions (log10CFU) (Helicobacter pylori [4]; HP 2, 48 h, 1x MIC) | Actual reductions (log10CFU) (Helicobacter pylori [4]; HP 2, 48 h, 5x MIC)
0.5 mg/L: MIC ([2]; H. pylori strain no 34) | MIC ([2]; H. pylori strain no 37) | MIC ([2]; H. pylori strain no 39) | MIC ([2]; H. pylori strain no 44) | MIC ([3]; H. pylori strain no 8) | MIC ([3]; H. pylori strain no 17) | MIC ([3]; H. pylori strain no 18) | MIC ([3]; H. pylori strain no 20) | MIC ([3]; H. pylori strain no 21) | MIC ([3]; H. pylori strain no 25) | MIC ([3]; H. pylori strain no 26) | MIC ([3]; H. pylori strain no 28)
−0.79 log10CFU: Actual reductions (log10CFU) (Helicobacter pylori [4]; HP 2, 4 h, 1x MIC)
0 log10CFU: Actual reductions (log10CFU) (Helicobacter pylori [4]; HP 2, 2 h, 1x MIC) | Actual reductions (log10CFU) (Helicobacter pylori [4]; HP 2, 2 h, 5x MIC) | Actual reductions (log10CFU) (Helicobacter pylori [4]; HP 2, 2 h, 10x MIC)
as effective, if not more effective: inhibiting the growth of H. pylori compared to traditional antibiotics ([3]; versus amoxycillin, clarithromycin and metronidazole, several strains (Tables 1 and 2))
1 mg/L: MIC ([2]; H. pylori strain no 45) | MIC ([3]; H. pylori strain no 16) | MIC ([3]; H. pylori strain no 24)
−0.90 log10CFU: Actual reductions (log10CFU) (Helicobacter pylori [4]; HP 2, 4 h, 5x MIC) | Actual reductions (log10CFU) (Helicobacter pylori [4]; HP 2, 8 h, 1x MIC) | Actual reductions (log10CFU) (Helicobacter pylori [4]; HP 2, 8 h, 5x MIC)
−1.18 log10CFU: Actual reductions (log10CFU) (Helicobacter pylori [4]; HP 2, 24 h, 1x MIC)
−1.40 log10CFU: Actual reductions (log10CFU) (Helicobacter pylori [4]; HP 2, 8 h, 20x MIC) | Actual reductions (log10CFU) (Helicobacter pylori [4]; HP 2, 24 h, 20x MIC) | Actual reductions (log10CFU) (Helicobacter pylori [4]; HP 2, 48 h, 10x MIC) | Actual reductions (log10CFU) (Helicobacter pylori [4]; HP 2, 48 h, 20x MIC)
2 h: Time (h) at which 99.9% intracellular killing was observed (Helicobacter pylori [4]; HP 3, 20 × MIC, tested in triplicate)
0.06 mg/L: MIC (Helicobacter pylori [1]; strain HP 4) | MIC ([3]; H. pylori strain no 6) | MIC ([3]; H. pylori strain no 7) | MIC ([3]; H. pylori strain no 10) | MIC ([3]; H. pylori strain no 14) | MIC ([3]; H. pylori strain no 15) | MIC ([3]; H. pylori strain no 22) | MIC ([3]; H. pylori strain no 23) | MIC ([3]; H. pylori strain no 27) | MIC ([3]; H. pylori strain no 30)

Source: patent publication US6737441B2, “Treatment of helicobacter with isothiocyanates” (priority 2000, dated 2004)
